In publication PMC4806491, “The milk-derived fusion peptide, ACFP, suppresses the growth of primary human ovarian cancer cells by regulating apoptotic gene expression and signaling pathways” (BMC Cancer, 2016):
≈ marks a conversion by molar mass, not a printed value. Where two headings read alike, the source gives them in different places. Residues, ends and D or L forms follow the SMILES beside them.

Tested on: primary ovarian cancer cells
Format: cell-based, human
Details: for growth of human primary ovarian cells: different concentrations, in vitro, n=12, Figure S1
Protocol: Fresh primary ovarian tumor tissues that were assessed and classified as serous ovarian adenocarcinoma (III-IV grade) according to WHO criteria were collected from 53 ovarian cancer patients who underwent initial debulking surgery at the first affiliated hospital of Anhui Medical University between June 2012 and June 2014. All patients had not received adjuvant therapies, such as chemotherapy or radiotherapy, prior to surgery. For comparison, normal ovarian glandular epithelium cells (NOGECs) were cultured from fresh primary normal ovarian tissues harvested from 7 patients with uterine fibromas, which were confirmed as negative for any neoplastic disease by pathological examination. Prior to tissue deposition, all patients signed written consent forms confirming their donation of tissue for research purposes according to the Declaration of Helsinki. This study was approved by the Anhui Medical University Review Board. Tumor or normal ovarian tissues were cut into small 1.0 mm^3 pieces, rinsed two times in phosphate buffered saline (PBS) and digested with 0.25 % trypsin in a sterile centrifuge tube at 37 °C for 30 min. To obtain a single cell suspension cell, digested tissues were filtered with a 100 μm cell strainer. Cells were collected by centrifugation at 1000 rpm for five minutes, and the cell pellet was re-suspended in Dulbecco’s modified eagle medium (DMEM) supplemented with 10 % fetal bovine serum (FBS). Cells were subsequently cultured in DMEM containing 0.1 mg/L epidermal growth factor (EGF), 0.1 mg/L insulin-like growth factor (IGF) and 0.1 mg/L beta-estradiol with 10 % FBS in 5 % CO2 at 37 °C. Once cells reached 70 to 80 % confluence, cell culture medium was drained from the flask, and cells were digested with 0.25 % collagenase II until approximately 1/3 of the cells fell to the bottom of the dish by eye using a microscope. Due to their initial shedding, most fibroblasts were eliminated by collagenase digestion. The remaining cells were cultured in 5 % CO2 at 37 °C. To determine purity, cells were analyzed using immunofluorescence of cytokeratin 7 (for ovarian cancer cells) or cytokeratin 19 (for normal ovarian epithelium cells).
Primary ovarian cancer cells were seeded into 96-well plates in sextuplicate at a starting density of 5 × 10^3 cells/well and incubated with ACFP at the concentrations: 0 (as control), 5 × 10^−6, 5 × 10^−5, 5 × 10^−4, 5 × 10^−3, 5 × 10^−2, 5 × 10^−1 and 5 g/L for 24, 48 and 72 h, respectively. Cells treated with paclitaxel at 5 × 10^−4 g/L were included in the same plate as a positive control. Cell viability was later measured using the WST-1 (water-soluble tetrazolium 1) cell viability and cytotoxicity assay kit (Beyotime, Haimen, China) according to the manufacturer’s instructions. The percent viability of cells was calculated using the formula to calculate the cell viability ratio (VR): VR (%) = (the experimental group A450nm value/control group A450nm value) × 100 %. To assess general toxicity of ACFP, viability of normal ovarian cells treated with ACFP was assayed using the same procedure. The effect of ACFP was compared with LfcinB and PGPIPN (the products of Shanghai Sangon Biological Engineering Technology, China). Each experiment was performed in two independent sets.

Structure (SMILES) | growth of human primary ovarian cells (48 h) | IC50, cell viability (24 h) [µg/mL] | IC50, cell viability (48 h) [µg/mL] | IC50, cell viability (72 h) [µg/mL]
CC[C@H](C)[C@@H]1NC(=O)[C@H](CO)NC(=O)[C@@H]2CCCN2C(=O)[C@H](C)NC(=O)CNC(=O)[C@H](CC(C)C)NC(=O)[C@H](CCCCN)NC(=O)[C@H](CCCCN)NC(=O)[C@H](CCSC)NC(=O)[C@H](CCCNC(=N)N)NC(=O)[C@H](Cc2c[nH]c3ccccc23)NC(=O)[C@H](CCC(N)=O)NC(=O)[C@H](Cc2c[nH]c3ccccc23)NC(=O)[C@H](CCCNC(=N)N)NC(=O)[C@H](CCCNC(=N)N)NC(=O)[C@@H](NC(=O)[C@H](CCCCN)NC(=O)[C@@H](N)Cc2ccccc2)CSSC[C@@H](C(=O)N[C@H](C(=O)N[C@@H](CCCNC(=N)N)C(=O)N[C@@H](CCCNC(=N)N)C(=O)N[C@@H](C)C(=O)N[C@@H](Cc2ccccc2)C(=O)O)C(C)C)NC(=O)[C@H]([C@@H](C)O)NC1=O [LfcinB] | decreased growth |  |  | 
CC[C@H](C)[C@H](NC(=O)[C@@H]1CCCN1C(=O)CNC(=O)[C@@H]1CCCN1)C(=O)N1CCC[C@H]1C(=O)N[C@@H](CC(N)=O)C(=O)O [PGPIPN] (H-PGPIPN-OH) | decreased growth | 14.5 (≈ 24.4 µM) | 9.3 (≈ 15.7 µM) | 1.24 (≈ 2.09 µM)
